Source: US8431704B2, “Quinoline or isoquinoline substituted P2X7 antagonists” (Janssen Pharmaceutica NV, priority 2008, dated 2013)

How the values were obtained:
hP2X7 = target: T1, hP2X7 (Homo sapiens, UniProt Q99572); test: P2X7 antagonism: ligand-induced Ca2+ flux in 1321N1 astrocytoma cells overexpressing hP2X7; format: cell-based; conditions: pIC50 = -log(IC50), read-out: hP2RX7pIC50 (mean pIC50 values) (converted)
T1 construct: expressed in transfected cells; host or cells: 1321N1 astrocytoma cells
T1 sequence (Q99572 1-595): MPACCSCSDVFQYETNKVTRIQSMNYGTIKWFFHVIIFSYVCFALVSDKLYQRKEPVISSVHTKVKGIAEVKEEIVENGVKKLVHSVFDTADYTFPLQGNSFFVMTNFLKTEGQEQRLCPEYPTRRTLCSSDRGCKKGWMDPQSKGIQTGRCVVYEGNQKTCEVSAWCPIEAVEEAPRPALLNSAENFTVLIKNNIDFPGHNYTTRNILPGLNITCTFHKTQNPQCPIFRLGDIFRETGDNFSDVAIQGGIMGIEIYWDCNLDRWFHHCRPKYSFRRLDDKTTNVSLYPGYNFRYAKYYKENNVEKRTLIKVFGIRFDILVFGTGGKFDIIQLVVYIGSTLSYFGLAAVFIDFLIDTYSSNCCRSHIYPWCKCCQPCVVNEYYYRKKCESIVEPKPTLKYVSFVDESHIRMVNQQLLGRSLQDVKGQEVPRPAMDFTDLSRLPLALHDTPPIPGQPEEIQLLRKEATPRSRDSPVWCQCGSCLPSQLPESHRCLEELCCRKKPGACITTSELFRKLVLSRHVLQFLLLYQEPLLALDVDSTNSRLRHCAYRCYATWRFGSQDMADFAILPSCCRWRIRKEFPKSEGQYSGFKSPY
Procedure, shortened: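 Intracellular Ca2+ tracked with a quenched Ca2+-sensitive fluorescent dye kit (excitation 488 nm, emission 510-560 nm) in 1321N1 cells, before and after agonist addition in presence of antagonist. Effects expressed as % control and IC50.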

P2X7 = target: T2, P2X7 (Homo sapiens, UniProt Q99572); test: THP-1 YoPro uptake assay (BzATP-stimulated Yo-Pro-1 uptake); format: cell-based; conditions: Table F-10, THP-1 cells, read-out: mean pIC50 values for P2X7 antagonism (converted)
T2 construct: endogenous in cells; host or cells: THP-1 human monocytic cell line
T2 sequence (Q99572 1-595): T1 sequence (Q99572 1-595)
Protocol: The human monocytic cell line THP-1 was grown as a suspension culture in RPMI medium supplemented with 10% fetal bovine serum, penicillin/streptomycin (50 units/mL), 2 mM L-glutamine, and 20 μM 2-mercaptoethanol. Cells were maintained at a density below 0.5 million per mL. On the day of the assay, cells were washed twice with assay buffer, and then resuspended at 2 million per mL in assay buffer containing 2 μM Yo-Pro-1 (Invitrogen). The assay buffer contained (in mM): 280 sucrose, 5 KCl, 10 glucose, 10 HEPES, 5 N-methyl-D-glucamine. The cells were added at 200 k/well into poly-D-lysine-coated black-walled 96-well plates (Biocoat, Becton-Dickinson). Test compounds were dissolved in DMSO, and then added at the test concentration to each well of the 96-well plate. Concentration dependence of block was determined by exposing each well of cells in duplicate rows of a 96-well plate to a serial dilution of test compound. The concentration series usually started at 10 μM with a three-fold decrement in concentration. The final DMSO concentration seen by the cells was less than 0.5%. Cells were incubated with test compounds for 30 minutes at 37° C. A background reading was taken using a Gemini SpectraMax with 490 nm excitation and 530 nm emission. […] After incubation for 60 minutes at 37° C., an endpoint read was taken in the SpectraMax plate reader. The amount of block of the response was determined by comparing the fluorescence intensity in each well to the average of control wells on each plate. The control wells contained either a known antagonist of P2X7 (positive controls) or a concentration of DMSO equal to that in the test wells. Data were analyzed using a nonlinear regression program (Origin, OriginLab, MA). Results are reported as the −log of the IC50 (pIC50).

Row | SMILES | IC50 (hP2X7) | IC50 (P2X7)
1 | CCOc1ncc(C(CNC(=O)c2cccc3nc(N4CCCC4)ccc23)N2CCOCC2)cn1 (stereo not drawn) [Compound 303] | 52.5 nM | –
2 | O=C(NCC(c1cnc(OCC2CC2)nc1)N1CCC(F)(F)CC1)c1cccc2nc(N3CCCC3)ccc12 (stereo not drawn) [Compound 304] | 28.2 nM | –
3 | CC(C)Oc1ncc(C(CNC(=O)c2cccc3nc(N4CCCC4)ccc23)N2CCC(F)(F)CC2)cn1 (stereo not drawn) [Compound 305] | 100 nM | –
4 | CC(C)Oc1ncc(C(CNC(=O)c2cccc3nc(N4CCN(C(C)C)CC4)ccc23)N2CCC(F)(F)CC2)cn1 (stereo not drawn) [Compound 306] | 46.8 nM | –
5 | O=C(NCC(c1cnc(C2CCCC2)nc1)N1CCC(F)(F)CC1)c1cccc2nc(N3CCCC3)ccc12 (stereo not drawn) [Compound 307] | 45.7 nM | –
6 | CC(C)c1ncc(C(CNC(=O)c2cccc3nc(N4CCCC4)ccc23)N2CCC(F)(F)CC2)cn1 (stereo not drawn) [Compound 308] | 49 nM | –
7 | CC(=O)N1CCN(c2ncc(C(CNC(=O)c3cccc4nc(N5CCN(C(C)C)CC5)ccc34)N3CCC(F)(F)CC3)cn2)CC1 (stereo not drawn) [Compound 309] | 74.1 nM | –
8 | CCOc1ncc(C(CNC(=O)c2cccc3nc(N4CCN(C(C)C)CC4)ccc23)N2CCOCC2)cn1 (stereo not drawn) [Compound 310] | 56.2 nM | –
9 | CCc1ncc(C(CNC(=O)c2cccc3nc(N4CCOCC4)ccc23)N2CCOCC2)cn1 (stereo not drawn) [Compound 311] | 112 nM | –
10 | CC(C)N1CCN(c2ccc3c(C(=O)NCC(c4cnc(N5CCNCC5)nc4)N4CCC(F)(F)CC4)cccc3n2)CC1 (stereo not drawn) [Compound 312] | 105 nM | –
11 | O=C(NCC(c1cnc(OC2CCC2)nc1)N1CCOCC1)c1cccc2nc(N3CCOCC3)ccc12 (stereo not drawn) [Compound 313] | 117 nM | –
12 | O=C(NCC(c1cnc(C2CCCC2)nc1)N1CCOCC1)c1cccc2nc(N3CCOCC3)ccc12 (stereo not drawn) [Compound 314] | 151 nM | –
13 | O=C(NCC(c1cnc(-c2ccccc2)nc1)N1CCOCC1)c1cccc2nc(N3CCOCC3)ccc12 (stereo not drawn) [Compound 315] | 42.7 nM | –
14 | O=C(NCC(c1cnc(C(F)(F)F)nc1)N1CCC(F)(F)CC1)c1c(Cl)ccc2nc(N3CCOCC3)ccc12 (stereo not drawn) [Compound 403] | – | 14.8 nM
15 | CN(C)[C@@H]1CCN(c2ccc3c(C(=O)NCC(c4cnc(C(F)(F)F)nc4)N4CCOCC4)c(Cl)ccc3n2)C1 (stereo partly drawn) [Compound 406] | – | 8.71 nM
16 | CN(C)[C@H]1CCN(c2ccc3c(C(=O)NCC(c4cnc(C(F)(F)F)nc4)N4CCOCC4)c(Cl)ccc3n2)C1 (stereo partly drawn) [Compound 407] | – | 7.41 nM
17 | CC(C)CN1CCN(c2ccc3c(C(=O)NCC(c4cnc(C(F)(F)F)nc4)N4CCOCC4)c(Cl)ccc3n2)CC1 (stereo not drawn) [Compound 408] | – | 6.76 nM
18 | O=C(NCC(c1cnc(C(F)(F)F)nc1)N1CCOCC1)c1c(Cl)ccc2nc(N3CCN(C4CC4)CC3)ccc12 (stereo not drawn) [Compound 409] | – | 3.39 nM
19 | CC(C)N1CCN(c2ccc3c(C(=O)NCC(c4cnc(C(F)(F)F)nc4)N4CCOCC4)c(Cl)ccc3n2)CC1 (stereo not drawn) [Compound 410] | – | 5.01 nM
20 | CCN1CCN(c2ccc3c(C(=O)NCC(c4cnc(C(F)(F)F)nc4)N4CCOCC4)c(Cl)ccc3n2)CC1 (stereo not drawn) [Compound 411] | – | 5.62 nM
21 | CN(C)CCNc1ccc2c(C(=O)NCC(c3cnc(C(F)(F)F)nc3)N3CCOCC3)c(Cl)ccc2n1 (stereo not drawn) [Compound 412] | – | 5.13 nM
22 | N[C@@H]1CCCN(c2ccc3c(C(=O)NCC(c4cnc(C(F)(F)F)nc4)N4CCOCC4)c(Cl)ccc3n2)C1 (stereo partly drawn) [Compound 413] | – | 5.13 nM
23 | O=C(NCC(c1cnc(C(F)(F)F)nc1)N1CCOCC1)c1c(Cl)ccc2nc(N3CCCCC3)ccc12 (stereo not drawn) [Compound 414] | – | 4.17 nM
24 | O=C(NCC(c1cnc(C(F)(F)F)nc1)N1CCOCC1)c1c(Cl)ccc2nc(N3CCCC3)ccc12 (stereo not drawn) [Compound 415] | – | 2.4 nM
25 | O=C(NCC(c1cnc(C(F)(F)F)nc1)N1CCOCC1)c1c(Cl)ccc2nc(N3CCC3)ccc12 (stereo not drawn) [Compound 416] | – | 1.74 nM
26 | N[C@@H]1CCCN(c2ccc3c(C(=O)NCC(c4cnc(C(F)(F)F)nc4)N4CCC(F)(F)CC4)c(Cl)ccc3n2)C1 (stereo partly drawn) [Compound 423] | – | 1.12 nM

Row | SMILES | IC50 (hP2X7) | IC50 (P2X7)
27 | N[C@H]1CCCN(c2ccc3c(C(=O)NCC(c4cnc(C(F)(F)F)nc4)N4CCC(F)(F)CC4)c(Cl)ccc3n2)C1 (stereo partly drawn) [Compound 424] | – | 2.24 nM
28 | O=C(NCC(c1cnc(C(F)(F)F)nc1)N1CCC(F)(F)CC1)c1c(Cl)ccc2nc(N3CCN(C4CC4)CC3)ccc12 (stereo not drawn) [Compound 425] | – | 6.31 nM
29 | CC(C)CN1CCN(c2ccc3c(C(=O)NCC(c4cnc(C(F)(F)F)nc4)N4CCC(F)(F)CC4)c(Cl)ccc3n2)CC1 (stereo not drawn) [Compound 426] | – | 5.75 nM
30 | CC(C)N1CCN(c2ccc3c(C(=O)NCC(c4cnc(C(F)(F)F)nc4)N4CCC(F)(F)CC4)c(Cl)ccc3n2)CC1 (stereo not drawn) [Compound 427] | – | 3.39 nM
31 | CCN1CCN(c2ccc3c(C(=O)NCC(c4cnc(C(F)(F)F)nc4)N4CCC(F)(F)CC4)c(Cl)ccc3n2)CC1 (stereo not drawn) [Compound 428] | – | 3.24 nM
32 | O=C(NCC(c1cnc(C(F)(F)F)nc1)N1CCOCC1)c1c(Cl)ccc2nc(NCCCO)ccc12 (stereo not drawn) [Compound 430] | – | 22.4 nM
33 | O=C(NCC(c1cnc(C(F)(F)F)nc1)N1CCOCC1)c1c(Cl)ccc2nc(NCC3CCCO3)ccc12 (stereo not drawn) [Compound 432] | – | 100000 nM
34 | CNCCCN(C)c1ccc2c(C(=O)NCC(c3cnc(C(F)(F)F)nc3)N3CCOCC3)c(Cl)ccc2n1 (stereo not drawn) [Compound 433] | – | 11.5 nM
35 | O=C(NCC(c1cnc(C(F)(F)F)nc1)N1CCOCC1)c1c(Cl)ccc2nc(NCc3ccccc3)ccc12 (stereo not drawn) [Compound 434] | – | 14.5 nM
36 | O=C(NCC(c1cnc(C(F)(F)F)nc1)N1CCOCC1)c1c(Cl)ccc2nc(NCc3cccnc3)ccc12 (stereo not drawn) [Compound 435] | – | 77.6 nM
37 | CC1CN(c2ccc3c(C(=O)NCC(c4cnc(C(F)(F)F)nc4)N4CCOCC4)c(Cl)ccc3n2)CC(C)N1 (stereo not drawn) [Compound 436] | – | 31.6 nM
38 | Cc1ccccc1CNc1ccc2c(C(=O)NCC(c3cnc(C(F)(F)F)nc3)N3CCOCC3)c(Cl)ccc2n1 (stereo not drawn) [Compound 437] | – | 155 nM
39 | O=C(NCC(c1cnc(C(F)(F)F)nc1)N1CCOCC1)c1c(Cl)ccc2nc(NCc3ccc(F)cc3)ccc12 (stereo not drawn) [Compound 438] | – | 22.9 nM
40 | O=C(NCC(c1cnc(C(F)(F)F)nc1)N1CCOCC1)c1c(Cl)ccc2nc(NCCN3CCOCC3)ccc12 (stereo not drawn) [Compound 439] | – | 40.7 nM
41 | O=C(NCC(c1cnc(C(F)(F)F)nc1)N1CCOCC1)c1c(Cl)ccc2nc(NCc3ccc4c(c3)OCO4)ccc12 (stereo not drawn) [Compound 440] | – | 37.2 nM
42 | O=C(NCC(c1cnc(C(F)(F)F)nc1)N1CCOCC1)c1c(Cl)ccc2nc(N3CCC4(CC3)OCCCO4)ccc12 (stereo not drawn) [Compound 441] | – | 24.5 nM
43 | O=C(NCC(c1cnc(C(F)(F)F)nc1)N1CCOCC1)c1c(Cl)ccc2nc(N3CCC(N4CCCC4=O)CC3)ccc12 (stereo not drawn) [Compound 442] | – | 224 nM
44 | CC(=O)N1C[C@H]2CC[C@@H]1N(c1ccc3c(C(=O)NCC(c4cnc(C(F)(F)F)nc4)N4CCOCC4)c(Cl)ccc3n1)C2 (stereo partly drawn) [Compound 443] | – | 282 nM
45 | O=C(NCC(c1cnc(C(F)(F)F)nc1)N1CCOCC1)c1c(Cl)ccc2nc(N3CCCNCC3)ccc12 (stereo not drawn) [Compound 444] | – | 25.7 nM
46 | O=C(NCC(c1cnc(C(F)(F)F)nc1)N1CCOCC1)c1c(Cl)ccc2nc(N3CCC(c4n[nH]c(=O)[nH]4)CC3)ccc12 (stereo not drawn) [Compound 445] | – | 23.4 nM
47 | O=C(NCC(c1cnc(C(F)(F)F)nc1)N1CCOCC1)c1c(Cl)ccc2nc(N3CCC(n4cn[nH]c4=O)CC3)ccc12 (stereo not drawn) [Compound 446] | – | 34.7 nM
48 | O=C(NCC(c1cnc(C(F)(F)F)nc1)N1CCOCC1)c1c(Cl)ccc2nc(NCc3cc(F)cc(F)c3)ccc12 (stereo not drawn) [Compound 447] | – | 309 nM
49 | O=C(NCC(c1cnc(C(F)(F)F)nc1)N1CCOCC1)c1c(Cl)ccc2nc(N3CCC(O)CC3)ccc12 (stereo not drawn) [Compound 452] | – | 19.5 nM
50 | CC1CN(c2ccc3c(C(=O)NCC(c4cnc(C(F)(F)F)nc4)N4CCOCC4)c(Cl)ccc3n2)CCO1 (stereo not drawn) [Compound 453] | – | 20.9 nM
51 | C[C@H]1CCCN(c2ccc3c(C(=O)NCC(c4cnc(C(F)(F)F)nc4)N4CCOCC4)c(Cl)ccc3n2)C1 (stereo partly drawn) [Compound 454] | – | 19.1 nM
